{
  "source": "paper PMC4270692",
  "about": "“Using a Non-Image-Based Medium-Throughput Assay for Screening Compounds Targeting N-myristoylation in Intracellular Leishmania Amastigotes” (PLoS Neglected Tropical Diseases, 2014)",
  "key": {"[1]": {"tested_on": "extracellular L. donovani amastigotes", "assay": "Extracellular assay on amastigotes freshly isolated from mouse spleens, 72 h at 26°C, Alamar blue", "type": "cell-based, Leishmania donovani", "settings": "for EC50: Leishmania donovani; for Cellular (leishmanicidal) activity in words: extracellular assay"}, "[2]": {"tested_on": "intracellular L. donovani amastigotes", "assay": "Intracellular amastigote assay: infected macrophages treated 72 h, saponin lysis, transformation to promastigotes, Alamar blue", "type": "cell-based, Leishmania donovani", "settings": "for EC50: Leishmania donovani, Macrophage; for Effect on intracellular amastigotes at the highest concentration tested: 45 µM, after an \"activity valley\" at 15 µM"}, "[3]": {"tested_on": "bone marrow derived macrophages"}, "L. donovani NMT": {"target": "L. donovani NMT (Leishmania donovani, UniProt D0AB09)", "sequence (D0AB09 1-421)": "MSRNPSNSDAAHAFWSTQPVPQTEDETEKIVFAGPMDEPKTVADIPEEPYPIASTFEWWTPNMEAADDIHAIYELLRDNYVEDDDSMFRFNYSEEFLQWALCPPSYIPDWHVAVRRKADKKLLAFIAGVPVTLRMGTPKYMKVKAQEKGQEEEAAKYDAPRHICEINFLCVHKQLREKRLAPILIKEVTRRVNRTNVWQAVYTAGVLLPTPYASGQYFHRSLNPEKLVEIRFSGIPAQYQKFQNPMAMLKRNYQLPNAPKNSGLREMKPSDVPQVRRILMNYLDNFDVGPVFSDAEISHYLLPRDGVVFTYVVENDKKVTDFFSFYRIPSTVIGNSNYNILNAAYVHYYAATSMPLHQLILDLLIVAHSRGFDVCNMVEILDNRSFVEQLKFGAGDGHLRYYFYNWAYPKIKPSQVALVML", "assay": "biochemical", "type": "biochemical"}, "[4]": {"settings": "72 h, 3-day treatment, splenic amastigotes from Rag2−/− mice, incubation at 26°C, read-out: EC50 ± SD extracellular L. donovani amastigotes"}, "[5]": {"settings": "72 h, 3-day treatment of infected bone marrow derived macrophages, mean of biological repeats, read-out: EC50 ± SD intracellular L. donovani amastigotes"}, "[6]": {"settings": "Figure 3, representative dose response curve, 72 h incubation, read-out: EC50 intracellular L. donovani amastigotes, representative plot"}, "[7]": {"settings": "72 h, read-out: EC50 extracellular L. donovani amastigotes"}, "[8]": {"settings": "NMT inhibitors, 72 h in infected macrophages, n.p. = not possible"}, "[9]": {"settings": "NMT inhibitors, 72 h at 26°C, read-out: EC50 extracellular L. donovani amastigotes"}},
  "note": "“Also recorded” adds a separate entry of the source. Read-outs that look alike come from different tables or passages of the source.",
  "data": [
    {"smiles": "C[C@@H]1[C@H](O)[C@@H](C)/C=C/C=C/C=C/C=C/C=C/C=C/C=C/[C@H](O[C@@H]2O[C@H](C)[C@@H](O)[C@H](N)[C@@H]2O)C[C@@H]2O[C@](O)(C[C@@H](O)C[C@@H](O)[C@H](O)CC[C@@H](O)C[C@@H](O)CC(=O)O[C@H]1C)C[C@H](O)[C@H]2C(=O)O", "note": "[Amphotericin B, amphotericin B]", "values": [
      {"measurement": "EC50", "setting": "[1]; [4]", "value": "0.05 ± 0.011", "unit": "µM"},
      {"measurement": "EC50", "setting": "[2]; [5]", "value": "30 ± 9", "unit": "nM"},
      {"measurement": "EC50", "setting": "[2]; [6]", "value": 29, "unit": "nM"}
    ]},
    {"smiles": "Cc1nn(C)c(C)c1NS(=O)(=O)c1c(Cl)cc(-c2ccnc(N3CCNCC3)c2)cc1Cl", "note": "[DDD85646]", "values": [
      {"measurement": "EC50", "setting": "[1]; [7]", "value": 8, "unit": "µM"},
      {"measurement": "LD50 bone marrow derived macrophages", "setting": "[3]; 72 h", "value": ">45", "unit": "µM"},
      {"measurement": "Effect on intracellular amastigotes at the highest concentration tested", "setting": "[2]", "value": "complete killing of the parasites; also recorded: all amastigotes cleared from the macrophages"},
      {"measurement": "EC50 intracellular L. donovani amastigotes", "setting": "[2]; [8]", "value": "n.p."}
    ]},
    {"smiles": "Cc1nn(C)c(C)c1NS(=O)(=O)c1c(Cl)cc(-c2ccnc(N3CCN(C)CC3)c2)cc1Cl", "note": "[DDD86211]", "values": [
      {"measurement": "EC50", "setting": "[1]; [9]", "value": 0.18, "unit": "µM"},
      {"measurement": "LD50 bone marrow derived macrophages", "setting": "[3]; female, BALB/c, mouse, 72 h", "value": ">45", "unit": "µM"},
      {"measurement": "Effect on intracellular amastigotes at the highest concentration tested", "setting": "[2]", "value": "complete killing of the parasites; also recorded: all amastigotes cleared from the macrophages"},
      {"measurement": "EC50 intracellular L. donovani amastigotes", "setting": "[2]; [8]", "value": "n.p."}
    ]},
    {"smiles": "Cc1nn(C)c(C)c1N(C(F)F)[S+](=O)([O-])c1c(Cl)cc(-c2ccnc(N3CCNCC3)c2)cc1Cl", "note": "[DDD100887]", "values": [
      {"measurement": "EC50", "setting": "[1]; [9]", "value": 0.66, "unit": "µM"},
      {"measurement": "LD50 bone marrow derived macrophages", "setting": "[3]; female, BALB/c, mouse, 72 h", "value": 23, "unit": "µM"},
      {"measurement": "EC50", "setting": "[2]; NMT inhibitors, 72 h in infected macrophages, n.p. = not possible, read-out: EC50 intracellular L. donovani amastigotes", "value": 190, "unit": "nM"}
    ]},
    {"smiles": "CN1CCC(N(C)c2nc(N(C)CCC#N)c3sccc3n2)CC1", "note": "[IMP-0000083]", "values": [
      {"measurement": "EC50", "setting": "[1]; [9]", "value": 24, "unit": "µM"},
      {"measurement": "Cellular (leishmanicidal) activity in words", "setting": "[1]", "value": "moderate cellular activity"},
      {"measurement": "Host cell toxicity (in words)", "setting": "[3]", "value": "no toxicity to host cells"},
      {"measurement": "LD50 bone marrow derived macrophages", "setting": "[3]; 72 h", "value": ">45", "unit": "µM"},
      {"measurement": "Concentration up to which no host cell cytotoxicity was seen", "setting": "[3]; female, BALB/c, mouse, 72 h", "value": "at least 45 µM"},
      {"measurement": "Activity in the intracellular assay (in words)", "setting": "[2]", "value": "no activity"},
      {"measurement": "IC50", "setting": "L. donovani NMT", "value": 281, "unit": "nM"},
      {"measurement": "Fold less potent in inhibition of LdNMT than IMP-0000195", "setting": "L. donovani NMT; relative to IMP-0000195", "value": "~4", "unit": "fold"}
    ]},
    {"smiles": "N[C@@H](CC(=O)N1C[C@H](CO)[C@@H](c2ccc(Cl)cc2)C1)Cc1ccc(Cl)cc1", "note": "[IMP-0000195]", "values": [
      {"measurement": "EC50", "setting": "[1]; [9]", "value": 12, "unit": "µM"},
      {"measurement": "LD50 bone marrow derived macrophages", "setting": "[3]; female, BALB/c, mouse, 72 h", "value": 12, "unit": "µM"},
      {"measurement": "Host cell toxicity (in words)", "setting": "[3]; macrophages", "value": "equally toxic to macrophages; also recorded: host cell toxicity and no selectivity"},
      {"measurement": "IC50", "setting": "L. donovani NMT; read-out: IC50 L. donovani NMT", "value": 76.5, "unit": "nM"}
    ]},
    {"smiles": "c1cncc(CCNCc2cccc(-c3cccc(CN4CCc5ncsc5C4)c3)c2)c1", "note": "[IMP-0000197]", "values": [
      {"measurement": "EC50", "setting": "[1]; [9]", "value": 16, "unit": "µM"},
      {"measurement": "Cellular (leishmanicidal) activity in words", "setting": "[1]", "value": "moderate cellular activity"},
      {"measurement": "Concentration up to which no host cell cytotoxicity was seen", "setting": "[3]", "value": "at least 45 µM"},
      {"measurement": "LD50 bone marrow derived macrophages", "setting": "[3]; female, BALB/c, mouse, 72 h", "value": 50, "unit": "µM"},
      {"measurement": "Activity in the intracellular assay (in words)", "setting": "[2]", "value": "no activity"}
    ]},
    {"smiles": "O=C(Cc1ccc(F)cc1)Nc1ccc2[nH]cc(C3CCNCC3)c2c1", "note": "[IMP-0000556]", "values": [
      {"measurement": "EC50", "setting": "[1]; [7]", "value": "> 30", "unit": "µM"},
      {"measurement": "Cellular (leishmanicidal) activity in words", "setting": "[1]", "value": "did not result in any leishmanicidal activity"},
      {"measurement": "LD50 bone marrow derived macrophages", "setting": "[3]; female, BALB/c, mouse, 72 h", "value": ">45", "unit": "µM"}
    ]},
    {"smiles": "CCCCCCCCCCCCCCCCOP(=O)([O-])OCC[N+](C)(C)C", "note": "[Miltefosine, miltefosine]", "values": [
      {"measurement": "EC50", "setting": "[1]; [4]", "value": "7.85 ± 0.5", "unit": "µM"},
      {"measurement": "EC50", "setting": "[2]; [5]", "value": "1380 ± 60", "unit": "nM"},
      {"measurement": "EC50", "setting": "[2]; [6]", "value": 1450, "unit": "nM"}
    ]}
  ]
}
